The IC50 is the concentration that inhibits the measured activity by half. As usually defined, the AC50 is the midpoint of the concentration-response curve, whichever way the signal moves.

Structures can show the parent of a compound that is named as a salt.

Here are results for 15 compounds from patent publication US20240409536A1, “COMPOUNDS AND METHODS FOR MODULATING SPLICING” (REMIX THERAPEUTICS INC., priority 2021, published 2024).

The subject of one data set is HiBiT-tagged HTT protein. As to the kind of experiment: HiBiT protein abundance assay, HTT (K562 HiBiT knock-in cells). It counts as cell-based, human. As to conditions: 24 hours. Put shortly: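 K562 cells with endogenous HiBiT knock-in tag, 10-point 3-fold dilutions (top 10 μM final, ≤0.25% DMSO), 24 h at 37 °C. Lytic Nano-Glo HiBiT luminescence, normalized to DMSO and unmodified K562 baselines; IC50 is concentration giving 50% protein abundance from four-parameter fit.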

A further data set relates to HTT mRNA. As to the kind of experiment: Splicing RT-qPCR assay, HTT canonical (CJ) and alternative (AJ) junction mRNA. The data set is classed as cell-based. The note with it: Homo sapiens, A673 or K562 cells, 24 hours; for IC50: decrease in canonical junction mRNA; for AC50: increase in alternative junction mRNA. The gist of the method: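 A673 (DMEM/10% FBS, plated 24 h before dosing) or K562 (IMDM/10% FBS) cells treated 24 h at 37 °C with 11-point 3-fold dilutions, top final 10 uM, DMSO ≤0.25%. Lysates analysed by one-step RT-qPCR for CJ and AJ isoforms, normalized to GAPDH/GUSB (K562) or PPIA (A673).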
On the technique in general: In qPCR the cycle at which signal appears reflects the starting amount.

The test system of a further data set is K562 cells. As to the kind of experiment: Cell Titer Glo 2.0 cell viability assay in K562 cells. The note with it: 72 hours. Background: In ATP-based viability assays light output follows the ATP content of the culture.
The next data set has as its system Target C. As to the kind of experiment: HiBiT protein abundance assay, Target C (K562 HiBiT knock-in cells). It counts as cell-based, human. The note with it: 24 hours. The gist of the method:
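K562 knock-in cells (10000/well, IMDM+1% FBS) treated 24 h at 37 °C with 10-point 3-fold dilutions, top final 10 μM, DMSO ≤0.25%. HiBiT lytic luminescence read; response normalized to unmodified K562 and DMSO-treated controls. IC50 interpolated at 50% abundance by four-parameter logistic fit.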
For orientation: HiBiT is a short tag that completes a luciferase, so light tracks the accessible tagged protein.

Experimental for K562 cells: Compounds described herein were screened for toxicity in K562 (human chronic myelogenous leukemia) and SH-SY5Y (human neuroblastoma) cells using a Cell Titer Glo 2.0 assay.
Cells were plated at 500 cells/well (K562 cells) in 45 μL of IMDM supplemented with 10% FBS in a 384-well opaque plate. Wells containing only medium were used as a blank control. Test compounds (e.g., compounds of Formula (I), (II), or (III)) were first serially diluted in DMSO then diluted 1:100 with IMDM+10% FBS. The final concentration of DMSO was 0.1% in each well. The cells were incubated for 72 hours at 37° C. and 5% CO2 before assaying with Cell Titer Glo 2.0 reagent.

As for `CCc1cc(NC(=O)c2ccc(N3CCNCC3)c3ccnnc23)nn2cc(C)nc12` [Compound 168, N-{8-ethyl-2-methylimidazo[1,2-b]pyridazin-6-yl}-5-(piperazin-1-yl)cinnoline-8-carboxamide trifluoroacetic acid salt], the IC50 in the data set on HiBiT-tagged HTT protein, with HTT mRNA and in the data set with Target C was above 10 µM each time. Also, in the data set with HTT mRNA, the half-maximal activity concentration (AC50) is above 10 µM. Besides, in the data set with K562 cells, the Viability result was “C (C represents 1000-9999 nM)”.
With `COc1ccc2c(N3CCNCC3)ccc(C(=O)Nc3cc(F)c4nc(C)cn4c3)c2n1` [Compound 169, N-{8-fluoro-2-methylimidazo[1,2-a]pyridin-6-yl}-2-methoxy-5-(piperazin-1-yl)quinoline-8-carboxamide], the IC50 in the data set on HiBiT-tagged HTT protein fell in the range of 0.1 to 1 µM; in the data set with HTT mRNA, 1 to 10 µM; with Target C it was 1 to 10 µM. In the data set on HTT mRNA, this compound displayed a concentration at half-maximal activity (AC50) of 1 to 10 µM. Further, the Viability result in the data set with K562 cells is on record as “A (A represents <100 nM)”.
`Cc1cn2cc(NC(=O)c3ccc(N4C[C@@H](C)N[C@@H](C)C4)c4ccnnc34)nc(C)c2n1` [Compound 172, N-{2,8-dimethylimidazo[1,2-a]pyrazin-6-yl}-5-[(3R,5S)-3,5-dimethylpiperazin-1-yl]cinnoline-8-carboxamide]: the IC50 in the data set on HiBiT-tagged HTT protein, in the data set with HTT mRNA and in the data set with Target C was above 10 µM throughout. In the data set on HTT mRNA, this compound registered an AC50 above 10 µM. Further, the Viability result with K562 cells is “B (B represents 100-1000 nM)”.
For `COCCOc1ccc2c(N3CCNCC3)ccc(C(=O)Nc3cc(F)c4nc(C)cn4c3)c2n1` [Compound 173, N-{8-fluoro-2-methylimidazo[1,2-a]pyridin-6-yl}-2-(2-methoxyethoxy)-5-(piperazin-1-yl)quinoline-8-carboxamide], the IC50 with HiBiT-tagged HTT protein, in the data set with HTT mRNA and in the data set with Target C was above 10 µM each time. For the same compound, the AC50 with HTT mRNA is above 10 µM. Moreover, the Viability entry in the data set with K562 cells is recorded as “B (B represents 100-1000 nM)”.
For `COc1cc(NC(=O)c2ccc(N3CCNCC3)c3ccnnc23)cn2cc(C)nc12` [Compound 176, N-{8-methoxy-2-methylimidazo[1,2-a]pyridin-6-yl}-5-(piperazin-1-yl)cinnoline-8-carboxamide trifluoroacetate], the IC50 with HiBiT-tagged HTT protein was 1 to 10 µM; in the data set with HTT mRNA, above 10 µM; in the data set on Target C, 1 to 10 µM. In the data set on HTT mRNA, this compound returned an AC50 above 10 µM. Besides, the Viability result with K562 cells is listed as “B (B represents 100-1000 nM)”.
`Cc1cn2cc(NC(=O)c3ccc(N4CCNCC4)c4ccnnc34)[nH]c(=O)c2n1` [Compound 177, N-{2-methyl-8-oxo-7H-imidazo[1,2-a]pyrazin-6-yl}-5-(piperazin-1-yl)cinnoline-8-carboxamide trifluoroacetic acid salt]: the IC50 with HiBiT-tagged HTT protein, in the data set on HTT mRNA and with Target C was 0.1 to 1 µM in each case. The same compound yielded an AC50 in the data set on HTT mRNA of 0.1 to 1 µM. Moreover, the Viability result with K562 cells is listed as “B (B represents 100-1000 nM)”.
For the compound `Cc1nc(NC(=O)c2ccc(N3CCNCC3)c3ccnnc23)cc2cn(C)nc12` [Compound 178, N-{2,7-dimethylpyrazolo[3,4-c]pyridin-5-yl}-5-(piperazin-1-yl)cinnoline-8-carboxamide], the IC50 in the data set with HiBiT-tagged HTT protein was 1 to 10 µM; in the data set with HTT mRNA, above 10 µM; in the data set on Target C, above 10 µM. The compound further gave an AC50 with HTT mRNA above 10 µM. For the same compound, the Viability entry with K562 cells is listed as “C (C represents 1000-9999 nM)”.
In the case of `COc1nc(NC(=O)c2ccc(N3CCNCC3)c3ccnnc23)cn2cc(C)nc12` [Compound 179, N-{8-methoxy-2-methylimidazo[1,2-a]pyrazin-6-yl}-5-(piperazin-1-yl)cinnoline-8-carboxamide], the IC50 in the data set on HiBiT-tagged HTT protein was 1 to 10 µM; with HTT mRNA, 1 to 10 µM; in the data set with Target C, above 10 µM. For the same compound, the half-maximal activity concentration (AC50) in the data set with HTT mRNA was 1 to 10 µM. In addition, the Viability result in the data set on K562 cells was “B (B represents 100-1000 nM)”.
Consider `Cc1c(O)c(NC(=O)c2ccc(N3CCNCC3)c3ccnnc23)cc2cn(C)nc12` [Compound 181, N-(6-hydroxy-2,7-dimethylindazol-5-yl)-5-(piperazin-1-yl)cinnoline-8-carboxamide], for which the IC50 in the data set with HiBiT-tagged HTT protein, in the data set on HTT mRNA and with Target C was above 10 µM throughout. For the same compound, in the data set with HTT mRNA, the AC50 was above 10 µM. Also, in the data set on K562 cells, the Viability result is given as “C (C represents 1000-9999 nM)”.
As to `Cc1cn2cc(NC(=O)c3ccc(N4CCNCC4)c4ccnnc34)cc(C(C)O)c2n1` (stereo not drawn) [Compound 182, N-[8-(1-hydroxyethyl)-2-methylimidazo[1,2-a]pyridin-6-yl]-5-(piperazin-1-yl)cinnoline-8-carboxamide trifluoroacetate], the IC50 in the data set with HiBiT-tagged HTT protein, in the data set with HTT mRNA and with Target C was above 10 µM throughout. The compound also displayed an AC50 in the data set with HTT mRNA above 10 µM. Besides, the Viability result in the data set on K562 cells is listed as “D (D represents greater than 10 μM in K562 cells)”.
Consider `COc1cc2c(N3CCNCC3)ccc(C(=O)Nc3cc(F)c4nc(C)cn4c3)c2nn1` [Compound 183, N-{8-fluoro-2-methylimidazo[1,2-a]pyridin-6-yl}-3-methoxy-5-(piperazin-1-yl)cinnoline-8-carboxamide], for which the IC50 was in the range of 0.1 to 1 µM in the data set with HiBiT-tagged HTT protein, 1 to 10 µM in the data set on HTT mRNA and 1 to 10 µM in the data set with Target C. This compound also gave an AC50 in the data set on HTT mRNA of 1 to 10 µM. Further, the Viability result with K562 cells is “B (B represents 100-1000 nM)”.
As for `Cc1cn2cc(NC(=O)c3ccc(N4CCN[C@@H](C)C4)c4nccnc34)cc(F)c2n1` [Compound 187, N-{8-fluoro-2-methylimidazo[1,2-a]pyridin-6-yl}-8-(3-methylpiperazin-1-yl) quinoxaline-5-carboxamide], the IC50 in the data set on HiBiT-tagged HTT protein, with HTT mRNA and in the data set with Target C was 1 to 10 µM each time. The same compound returned a concentration at half-maximal activity (AC50) in the data set on HTT mRNA of 1 to 10 µM. In addition, the Viability result with K562 cells is on record as “B (B represents 100-1000 nM)”.
With `Cc1cn2cc(NC(=O)c3ccc(N4CCC5(CCN5)CC4)c4nccnc34)cc(F)c2n1` [Compound 189, 8-{1,7-diazaspiro[3.5]nonan-7-yl}-N-{8-fluoro-2-methylimidazo[1,2-a]pyridin-6-yl}quinoxaline-5-carboxamide], the concentration for half-maximal inhibition (IC50) in the data set with HiBiT-tagged HTT protein was in the range of 0.1 to 1 µM; in the data set with HTT mRNA it was 0.1 to 1 µM; in the data set with Target C it was 1 to 10 µM. Also, in the data set on HTT mRNA, the AC50 was in the range of 0.1 to 1 µM. In the data set on K562 cells, the Viability entry is recorded as “B (B represents 100-1000 nM)”.
On to `CNC1CCN(c2ccc(C(=O)Nc3cc(F)c4nc(C)cn4c3)c3nccnc23)C1` (stereo not drawn) [Compound 190, N-{8-fluoro-2-methylimidazo[1,2-a]pyridin-6-yl}-8-[3-(methylamino)pyrrolidin-1-yl]quinoxaline-5-carboxamide], for which the IC50 in the data set on HiBiT-tagged HTT protein, in the data set with HTT mRNA and in the data set on Target C was 1 to 10 µM in each case. Further, the AC50 in the data set with HTT mRNA lay within 1 to 10 µM. Also, in the data set with K562 cells, the Viability result is “A (A represents <100 nM)”.
For the compound `CCNC1CCN(c2ccc(C(=O)Nc3cc(F)c4nc(C)cn4c3)c3nccnc23)CC1` [Compound 191, 8-[4-(ethylamino)piperidin-1-yl]-N-{8-fluoro-2-methylimidazo[1,2-a]pyridin-6-yl}quinoxaline-5-carboxamide], the results for the IC50 with HiBiT-tagged HTT protein, in the data set with HTT mRNA and with Target C were 0.1 to 1 µM, 0.1 to 1 µM and 1 to 10 µM, respectively. In the data set with HTT mRNA, the AC50 fell in the range of 0.1 to 1 µM. Also, the Viability result in the data set on K562 cells was “B (B represents 100-1000 nM)”.
